# From article PMC7732531 (Frontiers in Pharmacology, 2020)
# Like-named read-outs stand apart in the source and are kept apart here.
# What was measured:
# [1] = Protein binding by rapid equilibrium dialysis, rat brain homogenate; type: in vitro ADME
# Method: (§1) The fraction of unbound YL-IPA08 in plasma and liver microsomes of rat and human, and brain homogenates of rat were determined utilizing Rapid Equilibrium Dialysis method ([Waters et al., 2008]). Rat brain homogenate was harvested in 4-fold volume (w/v) of PBS (pH 7.4). YL-IPA08 were spiked into fresh plasma, rat brain homogenate, liver microsomes (0.2 mg/ml protein) at concentration of 1 µM, and then dialyzed against biomatrices on a shaker at 37°C for 4 h. To avoid the high non-specific binding of YL-IPA08, 0.01% Tween 80 was added in the incubation mixture. At the end of the incubation, protein was precipitated with acetonitrile (containing IS) and analyzed by LC-MS/MS. Phenacetin, quinidine, and warfarin were selected as positive control for the protein binding test.
# in vitro [2] = conditions: rat; for fraction unbound at 4 h, 1 µM: plasma
# Method: The fraction of unbound YL-IPA08 in plasma and liver microsomes of rat and human, and brain homogenates of rat were determined utilizing Rapid Equilibrium Dialysis method ([Waters et al., 2008]). Rat brain homogenate was harvested in 4-fold volume (w/v) of PBS (pH 7.4). YL-IPA08 were spiked into fresh plasma, rat brain homogenate, liver microsomes (0.2 mg/ml protein) at concentration of 1 µM, and then dialyzed against […] on a shaker at 37°C for 4 h. To avoid the high non-specific binding of YL-IPA08, 0.01% Tween 80 was added in the incubation mixture. At the end of the incubation, protein was precipitated with acetonitrile (containing IS) and analyzed by LC-MS/MS. Phenacetin, quinidine, and warfarin were selected as positive control for the protein binding test.
# The unbound fraction of YL-IPA08 in plasma or liver microsomes (ƒu,x) was calculated as shown in Eq. 2, and unbound fraction in the tissue homogenate (ƒu,b) was calculated according to Eq. 3. fu,x = Concbuffer chamber/Concplasma/liver microsomes chamber (2) fu,b = Concbuffer chamber/Concbrain homogenate chamber (3) The measured unbound fractions would be higher when a tissue is homogenized and diluted in buffer, the unbound fractions in an undiluted tissues (ƒu,brain) were calculated using Eq. 4 ([Kalvass and Maurer, 2002]). Undiluted fu,brain=1/D/((1/fu,brain homogenate)−1)+1/D (4) Where D represents the fold of dilution factor in brain homogenates. The free fraction of plasma and undiluted tissue is used in tissue-to-plasma exposure ratio calculation.
# in vitro [3] = conditions: rat, microsomes, pH 7.4
# TSPO = system: TSPO; set-up: method as in Zhang et al. (2017); conditions: crude mitochondrial fraction from rat cerebellum, 10 volumes HS buffer; ref Zhang et al. (2017); cited from earlier work
# [4] = Bioavailability study in rats (i.v. and p.o.); type: in vivo; conditions: male, rat, plasma; for MRT last: read-out: MRT(0–t)
# Method: Male SD rats (200-240 g) were obtained from Beijing Vital River Laboratory Animal Technology Co., Ltd. Animals were housed in a temperature- and humidity-controlled room with a 12 h light/dark cycle. They were fasted 12 h before the experiments and had ad libitum access to water. The animal experiments were conducted in the Beijing Center for Drug Safety Evaluation and according to a protocol (IACUC-DWZX-2020-691) approved by the Institutional Animal Care and Use Committee of the Center, which followed the guidelines of the Association for Assessment and Accreditation of Laboratory Animal Care International (AAALAC). […] Pharmacokinetic parameters were calculated by the noncompartmental method using WinNonlin 7.0 (Pharsight, CA). The area under the plasma concentration time curve (AUC) from time 0 to the last time point with a measurable concentration (AUC0-t) was calculated by trapezoidal method. Bioavailability (%F) was calculated as the ratio of the mean dose-normalized AUC values for oral and intravenous dosed groups [Fp.o. = […].)]. In vivo plasma clearance and volume of distribution were archived from the pharmacokinetic study via i.v. injection.
# [5] = human, microsomes, 0 h, 1 μM, pH 7.4
# [6] = Blood/plasma partitional ratio, human blood; type: in vitro ADME; conditions: fresh pooled whole blood with heparin, human whole blood, 37°C, read-out: blood/plasma partitioning (R b/P)
# Method: The blood/plasma partitional ratio (R b/p) in rat and human blood was measured in vitro using fresh pooled blood including heparin. Whole blood was preincubated at 37°C in a water bath, and spiked with YL-IPA08 at 1 µM. The blood samples were incubated at 37°C for 1 h. After incubation, aliquots of 25 µl spiked whole blood were removed, and the remaining blood was centrifuged at 2,000 × g for 10 min, after which 25 µl aliquots of plasma were removed. Obtained blood and plasma samples were spiked with same volume of blank plasma or blood, respectively, and then immediately precipitated by adding 4× volumes of acetonitrile containing IS to get the same matrix. The concentrations of YL-IPA08 in blood and plasma were determined by LC-MS/MS.
# in vitro [7] = type: in vitro ADME; conditions: human, microsomes
# Method: as §1
# The unbound fraction of YL-IPA08 in plasma or liver microsomes (ƒu,x) was calculated as shown in Eq. 2, and unbound fraction in the tissue homogenate (ƒu,b) was calculated according to Eq. 3. fu,x = Concbuffer chamber/Concplasma/liver microsomes chamber (2) fu,b = Concbuffer chamber/Concbrain homogenate chamber (3) The measured unbound fractions would be higher when a tissue is homogenized and diluted in buffer, the unbound fractions in an undiluted tissues (ƒu,brain) were calculated using Eq. 4 ([Kalvass and Maurer, 2002]). […]
compound,measurement,setting,value
CCN(Cc1ccccn1)C(=O)Cc1c(-c2ccc(Cl)c(Cl)c2)nc2cc(C)ccn12 [YL-IPA08],Protein biding (%),"[1]; Rat brain homogenate, 1 µM, dialysis 4 h",99.51 ± 0.01%
same,"Concentration, Cbuffer chamber","[1]; Rat brain homogentate, 4 h",18.85 ± 0.21 nM
same,"Concentration, Cplasma/microsome chamber","[1]; rat, 4 h, 1 µM, pH 7.4",788.33 ± 8.39 nM
same,"fraction unbound at 4 h, 1 µM","[1]; rat, brain homogenate, pH 7.4",0.0049
same,"Concentration, Cbuffer chamber","in vitro [2]; 4 h, 1 µM",5.44 ± 0.33 nM
same,"Concentration, Cplasma/microsome chamber","in vitro [2]; 4 h, 1 µM",872.67 ± 32.52 nM
same,Protein biding (%),"in vitro [2]; 4 h, 1 µM",99.40 ± 0.01%
same,"fraction unbound at 4 h, 1 µM",in vitro [2],~0.01
same,"fraction unbound at 4 h, 1 µM",in vitro [2]; Unbound fraction,0.006
same,microsomal CLint at 1 μM,in vitro [3],53 ± 20 µL/min/mg
same,IC50,TSPO,0.23 nM
same,AUC(0-inf),"[4]; SD, iv, i.v. 0.3 mg/kg",71.3 ± 12.3 ng·h/mL
same,AUC(0-t),"[4]; SD, iv, i.v. 0.3 mg/kg",70.6 ± 12.2 ng·h/mL
same,clearance,"[4]; SD, iv, i.v. 0.3 mg/kg",71.7 ± 11.5 mL/min/kg
same,half-life,"[4]; SD, iv, i.v. 0.3 mg/kg",1.13 ± 0.07 h
same,concentration at 0.033 h,"[4]; SD, iv, i.v. 0.3 mg/kg, 0.033 h",220 ± 32.5 ng/mL
same,concentration at 0.083 h,"[4]; SD, iv, i.v. 0.3 mg/kg",140 ± 36.2 ng/mL
same,concentration at 0.25 h,"[4]; SD, iv, i.v. 0.3 mg/kg",38.9 ± 5.41 ng/mL
same,concentration at 0.5 h,"[4]; SD, iv, i.v. 0.3 mg/kg",18.2 ± 1.29 ng/mL
same,concentration at 1 h,"[4]; SD, iv, i.v. 0.3 mg/kg",8.44 ± 1.06 ng/mL
same,concentration at 2 h,"[4]; SD, iv, i.v. 0.3 mg/kg",4.3 ± 0.57 ng/mL
same,concentration at 4 h,"[4]; SD, iv, i.v. 0.3 mg/kg",1.84 ± 0.39 ng/mL
same,concentration at 6 h,"[4]; SD, iv, i.v. 0.3 mg/kg",1.09 ± 0.22 ng/mL
same,concentration at 8 h,"[4]; SD, iv, i.v. 0.3 mg/kg",0.81 ± 0.08 ng/mL
same,concentration at 12 h,"[4]; SD, iv, i.v. 0.3 mg/kg",0.48 ± 0.06 ng/mL
same,MRT last,"[4]; SD, iv, i.v. 0.3 mg/kg",1.36 ± 0.11 h
same,Vd,"[4]; SD, iv, i.v. 0.3 mg/kg, read-out: Vz",6.98 ± 0.74 L/kg
same,AUC(0-inf),"[4]; SD, po, p.o. 1 mg/kg",13.6 ± 4.37 ng·h/mL
same,AUC(0-t),"[4]; SD, po, p.o. 1 mg/kg",12.5 ± 3.88 ng·h/mL
same,Cmax,"[4]; SD, po, p.o. 1 mg/kg",5.99 ± 1.36 ng/mL
same,Tmax,"[4]; SD, po, p.o. 1 mg/kg",3 ± 1.8 min
same,half-life,"[4]; SD, po, p.o. 1 mg/kg",1.66 ± 0.68 h
same,concentration at 0.083 h,"[4]; SD, po, p.o. 1 mg/kg",5.43 ± 1.96 ng/mL
same,concentration at 0.25 h,"[4]; SD, po, p.o. 1 mg/kg",5.22 ± 0.65 ng/mL
same,concentration at 0.5 h,"[4]; SD, po, p.o. 1 mg/kg",3.71 ± 0.79 ng/mL
same,concentration at 1 h,"[4]; SD, po, p.o. 1 mg/kg",3 ± 0.8 ng/mL
same,concentration at 2 h,"[4]; SD, po, p.o. 1 mg/kg",1.65 ± 0.44 ng/mL
same,concentration at 4 h,"[4]; SD, po, p.o. 1 mg/kg",1.02 ± 0.55 ng/mL
same,concentration at 6 h,"[4]; SD, po, p.o. 1 mg/kg",0.63 ± 0.31 ng/mL
same,concentration at 8 h,"[4]; SD, po, p.o. 1 mg/kg",0.63 ± 0.25 ng/mL
same,concentration at 12 h,"[4]; SD, po, p.o. 1 mg/kg",0.56 ± 0.27 ng/mL
same,MRT last,"[4]; SD, po, p.o. 1 mg/kg",3.35 ± 1.27 h
same,AUC(0-inf),"[4]; SD, po, p.o. 3 mg/kg",39.9 ± 9.81 ng·h/mL
same,AUC(0-t),"[4]; SD, po, p.o. 3 mg/kg",36.9 ± 9.57 ng·h/mL
same,Cmax,"[4]; SD, po, p.o. 3 mg/kg",19.2 ± 16.4 ng/mL
same,Tmax,"[4]; SD, po, p.o. 3 mg/kg",9 ± 10.2 min
same,half-life,"[4]; SD, po, p.o. 3 mg/kg",2.47 ± 1.54 h
same,concentration at 0.083 h,"[4]; SD, po, p.o. 3 mg/kg",18.9 ± 16.6 ng/mL
same,concentration at 0.25 h,"[4]; SD, po, p.o. 3 mg/kg",9.25 ± 4.57 ng/mL
same,concentration at 0.5 h,"[4]; SD, po, p.o. 3 mg/kg",7.42 ± 3.58 ng/mL
same,concentration at 1 h,"[4]; SD, po, p.o. 3 mg/kg",6.3 ± 3.02 ng/mL
same,concentration at 2 h,"[4]; SD, po, p.o. 3 mg/kg",4.07 ± 0.73 ng/mL
same,concentration at 4 h,"[4]; SD, po, p.o. 3 mg/kg",3.5 ± 0.73 ng/mL
same,concentration at 6 h,"[4]; SD, po, p.o. 3 mg/kg",2.35 ± 0.96 ng/mL
same,concentration at 8 h,"[4]; SD, po, p.o. 3 mg/kg",1.95 ± 0.51 ng/mL
same,concentration at 12 h,"[4]; SD, po, p.o. 3 mg/kg",0.84 ± 0.26 ng/mL
same,MRT last,"[4]; SD, po, p.o. 3 mg/kg",4.61 ± 1.49 h
same,AUC(0-inf),"[4]; SD, po, p.o. 10 mg/kg",107 ± 30.2 ng·h/mL
same,AUC(0-t),"[4]; SD, po, p.o. 10 mg/kg",104 ± 29.4 ng·h/mL
same,Cmax,"[4]; SD, po, p.o. 10 mg/kg",60.9 ± 44.9 ng/mL
same,Tmax,"[4]; SD, po, p.o. 10 mg/kg",9 ± 10.2 min
same,half-life,"[4]; SD, po, p.o. 10 mg/kg",2.31 ± 1.32 h
same,concentration at 0.083 h,"[4]; SD, po, p.o. 10 mg/kg",60.7 ± 45.1 ng/mL
same,concentration at 0.25 h,"[4]; SD, po, p.o. 10 mg/kg",20.5 ± 8.3 ng/mL
same,concentration at 0.5 h,"[4]; SD, po, p.o. 10 mg/kg",15.9 ± 4.1 ng/mL
same,concentration at 1 h,"[4]; SD, po, p.o. 10 mg/kg",10.2 ± 3.5 ng/mL
same,concentration at 2 h,"[4]; SD, po, p.o. 10 mg/kg",7.1 ± 2.7 ng/mL
same,concentration at 4 h,"[4]; SD, po, p.o. 10 mg/kg",5.63 ± 2.23 ng/mL
same,concentration at 6 h,"[4]; SD, po, p.o. 10 mg/kg",4.39 ± 2.71 ng/mL
same,concentration at 8 h,"[4]; SD, po, p.o. 10 mg/kg",3.61 ± 2.13 ng/mL
same,concentration at 12 h,"[4]; SD, po, p.o. 10 mg/kg",3.18 ± 1.43 ng/mL
same,concentration at 24 h,"[4]; SD, po, p.o. 10 mg/kg, 24 h",1.04 ± 0.66 ng/mL
same,MRT last,"[4]; SD, po, p.o. 10 mg/kg",7.73 ± 2.79 h
same,bioavailability,"[4]; SD, po, printed in the p.o. 3 mg/kg column, read-out: F",5.59%
same,bioavailability,"[4]; Sprague-Dawley (SD), oral administration (1–10 mg/kg), read-out: bioavailability",~6%
same,percent of remaining,[5],100.00%
same,"blood plasma ratio at 1 h, 1 µM",[6],1.58 ± 0.06
same,"fraction unbound at 4 h, 1 µM",in vitro [7],0.447
